Assay results published in patent publication US7700593B2, “Imidazo- and triazolo-pyridine compounds and methods of use thereof” (Amgen Inc., priority 2006, dated 2010).

Legend:
p38α = p38α (Homo sapiens, UniProt Q16539); assay: p38 in-vitro HTRF enzyme assay; type: biochemical; details: IC50 value ranges
Procedure: p38 In-Vitro HTRF Enzyme Assay
The compounds of the invention can be tested for their respective affinities for the p38 protein using a conventional p38 in-vitro enzyme activity assay. For example, a P38-alpha HTRF assay may be used to measure the protein's in-vitro phosphorylation activity, and the data analyzed using time resolved fluorimetry techniques (FRET). A p38 HTRF assay is as follows. The kinase reaction buffer for p38α, p38β, p38δ and p38γ HTRF assays consists of 50 mM Tris-pH 7.5, 5 mM MgCl2, 0.1 mg/mL BSA, 100 μM Na3VO4 and 0.5 mM DTT. The HTRF detection buffer contains 100 mM HEPES-pH 7.5, 100 mM NaCl, 0.1% BSA, 0.05% Tween-20, and 10 mM EDTA. Each compound was dissolved in 100% DMSO and serially diluted (3 fold, 10 point) in a polypropylene 96-well microtiter plate (drug plate). The final starting concentration of the compound in the p38α and p38β enzymatic assays was about 1 μM. The final starting concentration of each compound in the p38δ and p38γ enzymatic assays was about 10 μM. The p38α, p38β, p38δ and p38γ kinase reactions were carried out in a polypropylene 96-well black round bottom assay plate in total volume of 30 μL kinase reaction buffer. Appropriate concentration of purified and activated enzyme (recombinant human) was mixed with indicated concentration of ATP and 100 nM GST-ATF2-Avitag, in the presence or absence (HI control) of each compound. In the absence of enzyme, the background was measured as LO control. HI controls and LO controls contained only DMSO. The reaction was allowed to incubate for 1 hour at RT. […] After 60 minutes incubation at room temperature, the assay plate was read in a Discovery Plate Reader. The wells were excited with coherent 320 nm light and the ratio of delayed ([…] post excitation) emissions at […] (native europium fluorescence) and 665 nm (europium fluorescence transferred to allophycocyanin—an index of substrate phosphorylation) was determined (Park et al, 1999). The resulting data was analyzed by taking the proportion of substrate phosphorylated in the kinase reaction in the presence of each individual compound and comparing it with that phosphorylated in the presence of DMSO vehicle alone (HI control). The data was calculated using the formula: % control (POC)=(compound−average LO)/(average HI−average LO)*100. Data (consisting of POC and inhibitor concentration in μM) was fitted to a 4-parameter equation (y=A+((B−A)/(1+((x/C)^D))), where A is the minimum y (POC) value, B is the maximum y (POC), C is the x (compound concentration) at the point of inflection and D is the slope factor, using a Levenburg-Marquardt non-linear regression algorithm. The inhibition constant (Ki) of the inhibitor was estimated from the IC50 (compound concentration at the point of inflection C) using the Cheng-Prussof equation: Ki=IC50/(1+S/Km), where S is the ATP substrate concentration, and Km is the Michaelis constant for ATP as determined experimentally. All results were expressed as the mean±the standard error of the mean. Data acquisition and non-linear regression algorithms were performed using Activity Base v5.2 and XLfit software v4.1 respectively. Additional assay information may be obtained in Park Y W, Cummings R T, Wu L, et al. Homogeneous Proximity Tyrosine Kinase Assays Scintillation Proximity Assay versus Homogeneous Time-Resolved Fluorescence. Analytical Biochemistry. 1999; 269: 94-104.

THP1 cells = assay: Lipopolysaccharide-activated THP1 cell TNF production assay; type: cell-based, human; details: Homo sapiens, THP-1; LPS-induced TNF-α production in THP1 cells
Procedure: Lipopolysaccharide-Activated THP1 Cell TNF Production Assay
THP1 cells are resuspended in fresh THP1 media (RPMI 1640, 10% heat-inactivated FBS, 1×PGS, 1×NEAA, plus 30 μM βME) at a concentration of 1E6/mL. One hundred microliters of cells per well are plated in a polystyrene 96-well tissue culture. One microgram per mL of bacterial LPS is prepared in THP1 media and is transferred to the wells. Test compounds are dissolved in 100% DMSO and are serially diluted 3-fold in a polypropylene 96-well microtiter plate (drug plate). HI control and LO control wells contain only DMSO. One microliter of test compound from the drug plate followed by 10 μL of LPS are transferred to the cell plate. The treated cells are induced to synthesize and secrete TNF-α at 37° C. for 3 h. Forty microliters of conditioned media are transferred to a 96-well polypropylene plate containing 110 μL of ECL buffer (50 mM Tris-HCl pH 8.0, 100 mM NaCl, 0.05% Tween 20, 0.05% NaN3 and 1% FBS) supplemented with 0.44 nM MAB610 monoclonal Ab (R&D Systems), 0.34 nM ruthenylated AF210NA polyclonal Ab (R&D Systems) and 44 μg/mL sheep anti-mouse M280 Dynabeads (Dynal). After a 2 h incubation at room temperature with shaking, the reaction is read on the ECL M8 Instrument (IGEN Inc.). A low voltage is applied to the ruthenylated TNF-α immune complexes, which in the presence of TPA (the active component in Origlo), results in a cyclical redox reaction generating light at […]. The amount of secreted TNF-α in the presence of compound compared with that in the presence of DMSO vehicle alone (HI control) is calculated using the formula: % control (POC)=(cpd−average LO)/(average HI−average LO)*100. Data (consisting of POC and inhibitor concentration in μM) is fitted to a 4-parameter equation (y=A+((B−A)/(1+((x/C)^D))), where A is the minimum y (POC) value, B is the maximum y (POC), C is the x (cpd concentration) at the point of inflection and D is the slope factor) using a Levenburg-Marquardt non-linear regression algorithm.

monocytes = assay: Lipopolysaccharide-activated monocyte TNF production assay (LPS induced TNF release); type: cell-based, human; details: Homo sapiens, Monocyte; LPS induced TNF release from monocytes; read-out: LPS induced TNFa
Procedure: Lipopolysaccharide-Activated Monocyte TNF Production Assay
Test compounds were evaluated in vitro for the ability to inhibit the production of TNF by monocytes activated with bacterial lipopolysaccharide (LPS). Fresh residual source leukocytes (a byproduct of plateletpheresis) were obtained from a local blood bank, and peripheral blood mononuclear cells (PBMCs) were isolated by density gradient centrifugation on Ficol-Paque Plus (Pharmacia). PBMCs were suspended at 2×10^6/mL in DMEM supplemented to contain 2% FCS, 10 mM, 0.3 mg/mL […], 100 U/mL penicillin G and […] streptomycin sulfate (complete media). Cells were plated into Falcon flat bottom, 96 well culture plates (200 μL/well) and cultured overnight at 37° C. and 6% CO2. Non-adherent cells were removed by washing with 200 μl/well of fresh medium. Wells containing adherent cells (˜70% monocytes) were replenished with 100 μL of fresh medium.
Preparation of Test Compound Stock Solutions
Test compounds were dissolved in […]. Compound stock solutions were prepared to an initial concentration of […]. Stocks were diluted initially to […] in complete media. Nine two-fold serial dilutions of each compound were then prepared in complete medium.
Treatment of Cells with Test Compounds and Activation of TNF Production with Lipopolysaccharide
One hundred microliters of each test compound dilution were added to microtiter wells containing adherent monocytes and 100 μL complete medium. Monocytes were cultured with test compounds for 60 min at which time 25 μL of complete medium containing 30 ng/mL lipopolysaccharide from E. coli K532 were added to each well. Cells were cultured an additional 4 hrs. Culture supernatants were then removed and TNF presence in the supernatants was quantified using an ELISA.
Flat bottom, 96 well Corning High Binding ELISA plates were coated overnight (4° C.) with 150 μL/well of 3 μg/mL murine anti-human TNF-α MAb (R&D Systems #MAB210). Wells were then blocked for 1 h at room temperature with 200 μL/well of CaCl2-free ELISA buffer supplemented to contain 20 mg/mL BSA (standard ELISA buffer: […], 150 mM NaCl, 2 mM CaCl2, 0.15 mM thimerosal, pH 7.4). Plates were washed and replenished with 100 μL of test supernatants (diluted 1:3) or standards. Standards consisted of eleven 1.5-fold serial dilutions from a stock of 1 ng/mL recombinant human TNF (R&D Systems). Plates were incubated at room temperature for 1 h on orbital shaker (300 rpm), washed and replenished with 100 μL/well of 0.5 μg/mL goat anti-human TNF-α (R&D systems #AB-210-NA) biotinylated at a 4:1 ratio. Plates were incubated for 40 min, washed and replenished with 100 μL/well of alkaline phosphatase-conjugated streptavidin (Jackson ImmunoResearch #016-050-084) at 0.02 μg/mL. Plates were incubated 30 min, washed and replenished with 200 μL/well of 1 mg/mL of p-nitrophenyl phosphate.
Standard curve data were fit to a second order polynomial and unknown TNF-α concentrations determined from their OD by solving this equation for concentration. TNF concentrations were then plotted vs. test compound concentration using a second order polynomial. This equation was then used to calculate the concentration of test compounds causing a 50% reduction in TNF production.

Sequence of p38α (Q16539 whole entry): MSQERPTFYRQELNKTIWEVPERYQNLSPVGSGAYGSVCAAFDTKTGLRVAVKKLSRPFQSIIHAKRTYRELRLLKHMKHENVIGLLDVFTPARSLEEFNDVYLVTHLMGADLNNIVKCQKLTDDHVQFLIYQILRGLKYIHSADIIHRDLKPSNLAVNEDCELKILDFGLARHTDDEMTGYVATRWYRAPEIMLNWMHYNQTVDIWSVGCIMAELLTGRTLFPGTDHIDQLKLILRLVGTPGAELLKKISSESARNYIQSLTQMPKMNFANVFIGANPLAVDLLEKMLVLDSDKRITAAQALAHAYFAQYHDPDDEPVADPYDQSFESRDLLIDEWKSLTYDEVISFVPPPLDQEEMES

| Compound | IC50 (p38α) | IC50 (THP1 cells) | IC50 (monocytes) |
| --- | --- | --- | --- |
| Cc1ccc(C(=O)Nc2ccnn2C)cc1-c1ccn2c(C3(C(F)(F)F)CC3)nnc2c1 [Example 20, 4-methyl-N-(1-methyl-1H-pyrazol-5-yl)-3-(3-(1-(trifluoromethyl)cyclopropyl)[1,2,4]triazolo[4,3-a]pyridin-7-yl)benzamide] | < 25 nM | < 25 nM | – |
| Cc1ccc(C(=O)NC2CC2)cc1-c1ccn2c(-c3c(F)cccc3F)nnc2c1 [Example 65, N-cyclopropyl-3-(3-(2,6-difluorophenyl)[1,2,4]triazolo[4,3-a]pyridin-7-yl)-4-methylbenzamide] | – | < 25 nM | < 25 nM |
| Cc1cc(F)c(C(=O)NC2CC2)cc1-c1ccn2c(-c3c(F)cccc3Cl)nnc2c1 [Example 72, 5-(3-(2-chloro-6-fluorophenyl)[1,2,4]triazolo[4,3-a]pyridin-7-yl)-N-cyclopropyl-2-fluoro-4-methylbenzamide] | – | 25 to 100 nM | 25 to 100 nM |
| Cc1c(F)cc(C(=O)NC2CC2)cc1-c1ccn2c(C(C)(C)C)nnc2c1C [Example 76, N-cyclopropyl-3-(3-(1,1-dimethylethyl)-8-methyl[1,2,4]triazolo[4,3-a]pyridin-7-yl)-5-fluoro-4-methylbenzamide] | – | 25 to 100 nM | 100 to 250 nM |
| Cc1ccc(C(=O)NC2CC2)cc1-c1ccn2c(C(C)(C)C)nnc2c1C [Example 77, N-cyclopropyl-3-(3-(1,1-dimethylethyl)-8-methyl[1,2,4]triazolo[4,3-a]pyridin-7-yl)-4-methylbenzamide] | – | 25 to 100 nM | 100 to 250 nM |
| Cc1ccc(C(=O)NC2CC2)cc1-c1ccn2c(-c3c(C)cccc3F)nnc2c1 [Example 84, N-cyclopropyl-3-(3-(2-fluoro-6-methylphenyl)[1,2,4]triazolo[4,3-a]pyridin-7-yl)-4-methylbenzamide] | < 25 nM | – | – |
| COc1ccccc1-c1nnc2cc(-c3cc(C(=O)NC4CC4)ccc3C)ccn12 [Example 85, N-cyclopropyl-4-methyl-3-(3-(2-(methyloxy)phenyl)[1,2,4]triazolo[4,3-a]pyridin-7-yl)benzamide] | < 25 nM | – | – |
| Cc1ccc(C(=O)NC2CC2)cc1-c1ccn2c([C@@H](C)C(F)(F)F)nnc2c1 [Example 87, N-cyclopropyl-4-methyl-3-(3-((1R)-2,2,2-trifluoro-1-methylethyl)[1,2,4]triazolo[4,3-a]pyridin-7-yl)benzamide] | – | 25 to 100 nM | 100 to 250 nM |
| Cc1ccc(C(=O)NC2CC2)cc1-c1ccn2c(N3CCNC3=O)nnc2c1 [Example 100, N-cyclopropyl-4-methyl-3-(3-(2-oxo-1-imidazolidinyl)[1,2,4]triazolo[4,3-a]pyridin-7-yl)benzamide] | – | 250 to 1000 nM | 1000 to 5000 nM |

The next lines start with the values.

| IC50 (p38α) | IC50 (THP1 cells) | IC50 (monocytes) | Compound |
| --- | --- | --- | --- |
| – | 25 to 100 nM | 100 to 250 nM | Cc1cc(F)c(C(=O)NC2CC2)cc1-c1ccn2c(-c3sccc3C)nnc2c1 [Example 67, N-cyclopropyl-2-fluoro-4-methyl-5-(3-(3-methyl-2-thienyl)[1,2,4]triazolo[4,3-a]pyridin-7-yl)benzamide] |
| – | < 25 nM | 100 to 250 nM | Cc1cc(F)c(C(=O)Nc2ccnn2C)cc1-c1ccn2c(-c3sccc3C)nnc2c1 [Example 68, 2-fluoro-4-methyl-N-(1-methyl-1H-pyrazol-5-yl)-5-(3-(3-methyl-2-thienyl)[1,2,4]triazolo[4,3-a]pyridin-7-yl)benzamide] |
| – | 25 to 100 nM | 100 to 250 nM | Cc1cc(F)c(C(=O)Nc2ccnn2C)cc1-c1ccn2c(-c3ccccc3Cl)nnc2c1 [Example 71, 5-(3-(2-chlorophenyl)[1,2,4]triazolo[4,3-a]pyridin-7-yl)-2-fluoro-4-methyl-N-(1-methyl-1H-pyrazol-5-yl)benzamide] |
| – | < 25 nM | 25 to 100 nM | Cc1cc(F)c(C(=O)Nc2ccnn2C)cc1-c1ccn2c(-c3c(F)cccc3Cl)nnc2c1 [Example 73, 5-(3-(2-chloro-6-fluorophenyl)[1,2,4]triazolo[4,3-a]pyridin-7-yl)-2-fluoro-4-methyl-N-(1-methyl-1H-pyrazol-5-yl)benzamide] |
